Laboratory results as given in patent publication US12390441B2, “Immunomodulating o-het/aryl azalides” (Zoetis Services LLC, priority 2020, dated 2025).

How the values were obtained:
[1] = tested on: Lung bacteria isolated at necropsy; test: MIC of recovered isolates, natural bovine respiratory disease study
Description: The primary clinical endpoint for efficacy was treatment failure/success over a 14-day observation period. Clinically normal beef calves (150-200 kg) at moderate risk for BRD were dosed on arrival to the feedlot. Animals (N=114/group) received saline (T01), 5 mg/kg M9 (T02) or 10 mg/kg M9 (T03); or Zactran (T04). […] Bacterial isolates were collected at necropsy and MICs were evaluated (Table 4).

[2] = PK study, plasma concentration; details: 10 mg/kg dose
[3] = molecular target: T1, LCN2 (Bos taurus, UniProt A0AAA9TIZ6); test: Surface plasmon resonance (SPR), KD; assay type: binding; details: biologically relevant pH
T1 sequence (A0AAA9TIZ6 1-200): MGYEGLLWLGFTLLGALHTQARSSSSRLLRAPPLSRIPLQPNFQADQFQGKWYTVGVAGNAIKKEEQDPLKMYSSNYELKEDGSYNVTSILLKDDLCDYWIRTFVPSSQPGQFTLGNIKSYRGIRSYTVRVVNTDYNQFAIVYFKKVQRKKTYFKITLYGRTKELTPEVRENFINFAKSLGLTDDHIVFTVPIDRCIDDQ
Description: (§1) In order to add further clarity to binding partner identification, surface plasma resonance (SPR) technology was used. […] These targets were unique to this drug as compared to gamithromycin, a macrolide antibiotic used in the treatment of BRD. Both targets fit the paradigm that the immunological mechanism of action is linked to the pathways that are both of key importance as being dysregulated in BRD and modulated by M9. LCN2 is expressed by neutrophils upon activation of toll-like receptors (TLRs) and is a component of the innate inflammatory response. […] Very little information exists to date on SLAMF9. It is a member of a family of signal adaptor proteins that is thought to lack signal transduction capabilities.
(§2) KD is the equilibrium dissociation constant that was used to present the drug/target affinity. The identified targets associated with drug were measured by surface plasmon resonance (SPR) to define the KD.

[4] = molecular target: SLAMF9 (Bos taurus, UniProt E1BNF9); test: Surface plasmon resonance (SPR), KD; assay type: binding; details: biologically relevant pH
SLAMF9, sequence (E1BNF9 1-289): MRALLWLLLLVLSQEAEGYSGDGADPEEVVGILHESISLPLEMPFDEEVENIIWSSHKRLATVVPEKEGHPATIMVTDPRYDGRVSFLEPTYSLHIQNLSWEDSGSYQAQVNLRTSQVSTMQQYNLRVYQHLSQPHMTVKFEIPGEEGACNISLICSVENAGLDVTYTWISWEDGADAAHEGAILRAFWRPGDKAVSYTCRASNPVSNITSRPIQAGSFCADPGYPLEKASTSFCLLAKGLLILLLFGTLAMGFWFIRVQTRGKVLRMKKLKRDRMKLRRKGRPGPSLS
Description: as §1, §2

[5] = H. somni (25) lung isolates at necropsy

CCCNC[C@]1(O)[C@H](C)O[C@@H](O[C@H]2[C@H](C)[C@@H](O[C@@H]3O[C@H](C)C[C@H](NC)[C@H]3O)[C@](C)(O)C[C@@H](C)CN[C@H](C)[C@@H](O)[C@](C)(O)[C@@H](CC)OC(=O)[C@@H]2C)C[C@@]1(C)OC [Example M9, (2R,3S,4R,5R,8R,10R,11R,12S,13S,14R)-2-ethyl-3,4,10-trihydroxy-13-(((2R,4R,5S,6S)-5-hydroxy-4-methoxy-4,6-dimethyl-5-((propylamino)methyl)-tetrahydro-2H-pyran-2-yl)oxy)-11-(((2S,3R,4S,6R)-3-hydroxy-6-methyl-4-(methylamino)tetrahydro-2H-pyran-2-yl)oxy)-3,5,8,10,12,14-hexamethyl-1-oxa-6-azacyclopentadecan-15-one]
MIC50 [1, 5]: 32 µg/mL
MIC90 [1, 5]: 32 µg/mL
MIC Range [1, 5]: 8 to 64 µg/mL
MIC, BRD bacterial isolates collected at necropsy ([1]; some of the isolates): < 64 µg/mL
maximum plasma concentration [2]: 5 µg/mL
drug/target binding, LCN2 [3]: direct binding targets
drug/target binding, SLAMF9 [4]: direct binding targets
